In the OligoGym collection:
HELM strings list units from the 5' end as sugar, base in round brackets, then linkage (d deoxyribose, r ribose, m 2'-O-methyl, p phosphodiester). Strings are as the collection lists them; they lack the last nucleoside at the 3' end of the tested compound. [moe] = 2'-O-(2-methoxyethyl) (MOE); [sp] = phosphorothioate linkage; [m5C] = 5-methylcytosine

What follows are substances tested against C9ORF72 (assay: mouse, dose not given). Settings: ASO.

First: RNA1{[moe](G)[sp].[moe](G)p.[moe](T)p.[moe](T)[sp].d(A)[sp].d(A)[sp].d(T)[sp].d([m5C])[sp].d(T)[sp].d(T)[sp].d(T)[sp].d(A)[sp].[moe](T)p.[moe]([m5C])p.[moe](A)p.[moe](G)[sp].[moe](G)}$$$$ (last 3' nucleoside missing)
Second: RNA1{[moe](G)[sp].[moe](G)p.[moe](T)p.[moe](T)p.[moe](A)p.[moe](A)[sp].d(T)[sp].d([m5C])[sp].d(T)[sp].d(T)[sp].d(T)[sp].d(A)[sp].d(T)[sp].d([m5C])[sp].[moe](A)p.[moe](G)[sp].[moe](G)}$$$$ (last 3' nucleoside missing)
The 3 h FOB score of the first is lower: 1 score 0-7 for the first, 1.25 score 0-7 for the second.

Going from “RNA1{[moe](G)[sp].[moe](G)p.[moe](T)p.[moe](T)p.[moe](A)p.[moe](A)p.[moe](T)p.d([m5C])[sp].d(T)[sp].d(T)[sp].d(T)[sp].d(A)[sp].d(T)[sp].d([m5C])[sp].d(A)[sp].d(G)[sp].d(G)[sp].[moe](T)[sp].[moe]([m5C])}$$$$ (last 3' nucleoside missing)” to “RNA1{[moe](G)[sp].[moe](G)p.[moe](T)p.[moe](T)p.[moe](A)p.[moe](A)p.d(T)[sp].d([m5C])[sp].d(T)[sp].d(T)[sp].d(T)[sp].d(A)[sp].d(T)[sp].d([m5C])[sp].d(A)[sp].d(G)[sp].[moe](G)p.[moe](T)[sp].[moe]([m5C])}$$$$ (last 3' nucleoside missing)”, the 3 h FOB score falls from 5.75 score 0-7 to 1.5 score 0-7.

“RNA1{[moe](G)[sp].[moe](G)p.[moe](T)p.[moe](T)p.d(A)[sp].d(A)[sp].d(T)[sp].d([m5C])[sp].d(T)[sp].d(T)[sp].d(T)[sp].d(A)[sp].d(T)[sp].d([m5C])[sp].[moe](A)p.[moe](G)p.[moe](G)p.[moe](T)[sp].[moe]([m5C])}$$$$ (last 3' nucleoside missing)” and “RNA1{[moe](G)[sp].[moe](G)p.[moe](T)p.d(T)[sp].d(A)[sp].d(A)[sp].d(T)[sp].d([m5C])[sp].d(T)[sp].d(T)[sp].d(T)[sp].d(A)[sp].d(T)[sp].[moe]([m5C])p.[moe](A)p.[moe](G)p.[moe](G)p.[moe](T)[sp].[moe]([m5C])}$$$$ (last 3' nucleoside missing)” are the same in 3 h FOB score: 0 score 0-7 for the first, 0 score 0-7 for the second.

Going from “RNA1{[moe](G)[sp].[moe](G)p.[moe]([m5C])p.[moe](T)[sp].d(G)[sp].d([m5C])[sp].d(G)[sp].d(G)[sp].d(T)[sp].d(T)[sp].d(G)[sp].d(T)[sp].[moe](T)p.[moe](T)p.[moe]([m5C])p.[moe]([m5C])[sp].[moe]([m5C])}$$$$ (last 3' nucleoside missing)” to “RNA1{[moe](G)[sp].[moe](G)p.[moe]([m5C])p.[moe](T)p.[moe](G)p.[moe]([m5C])[sp].d(G)[sp].d(G)[sp].d(T)[sp].d(T)[sp].d(G)[sp].d(T)[sp].d(T)[sp].d(T)[sp].[moe]([m5C])p.[moe]([m5C])[sp].[moe]([m5C])}$$$$ (last 3' nucleoside missing)”, the 3 h FOB score falls from 6 score 0-7 to 2.5 score 0-7.

Going from “RNA1{[moe](G)[sp].[moe](G)p.[moe]([m5C])p.[moe](T)p.[moe](G)p.[moe]([m5C])p.d(G)[sp].d(G)[sp].d(T)[sp].d(T)[sp].d(G)[sp].d(T)[sp].d(T)[sp].d(T)[sp].d([m5C])[sp].[moe]([m5C])p.[moe]([m5C])[sp].[moe](T)}$$$$ (last 3' nucleoside missing)” to “RNA1{[moe](G)[sp].[moe](G)p.[moe]([m5C])p.[moe](T)p.[moe](G)p.d([m5C])[sp].d(G)[sp].d(G)[sp].d(T)[sp].d(T)[sp].d(G)[sp].d(T)[sp].d(T)[sp].d(T)[sp].[moe]([m5C])p.[moe]([m5C])p.[moe]([m5C])[sp].[moe](T)}$$$$ (last 3' nucleoside missing)”, the 3 h FOB score rises from 5.25 score 0-7 to 5.5 score 0-7.

Going from “RNA1{[moe](G)[sp].[moe](G)p.[moe]([m5C])p.[moe](T)p.d(G)[sp].d([m5C])[sp].d(G)[sp].d(G)[sp].d(T)[sp].d(T)[sp].d(G)[sp].d(T)[sp].d(T)[sp].[moe](T)p.[moe]([m5C])p.[moe]([m5C])p.[moe]([m5C])[sp].[moe](T)}$$$$ (last 3' nucleoside missing)” to “RNA1{[moe](G)[sp].[moe](G)p.[moe]([m5C])p.[moe]([m5C])[sp].d([m5C])[sp].d([m5C])[sp].d(T)[sp].d(A)[sp].d(G)[sp].d([m5C])[sp].d(G)[sp].d([m5C])[sp].[moe](G)p.[moe]([m5C])p.[moe](G)p.[moe](A)[sp].[moe]([m5C])}$$$$ (last 3' nucleoside missing)”, the 3 h FOB score falls from 6 score 0-7 to 2.5 score 0-7.

Compared with “RNA1{[moe](G)[sp].[moe](G)p.[moe]([m5C])p.[moe]([m5C])p.[moe]([m5C])p.[moe]([m5C])[sp].d(T)[sp].d(A)[sp].d(G)[sp].d([m5C])[sp].d(G)[sp].d([m5C])[sp].d(G)[sp].d([m5C])[sp].[moe](G)p.[moe](A)[sp].[moe]([m5C])}$$$$ (last 3' nucleoside missing)”, “RNA1{[moe](G)[sp].[moe](G)p.[moe]([m5C])p.[moe]([m5C])p.[moe]([m5C])p.[moe]([m5C])p.d(T)[sp].d(A)[sp].d(G)[sp].d([m5C])[sp].d(G)[sp].d([m5C])[sp].d(G)[sp].d([m5C])[sp].d(G)[sp].d(A)[sp].[moe]([m5C])p.[moe](T)[sp].[moe]([m5C])}$$$$ (last 3' nucleoside missing)” is lower in 3 h FOB score: 3.25 score 0-7 for the first, 1.25 score 0-7 for the second.

Going from “RNA1{[moe](G)[sp].[moe](G)p.[moe]([m5C])p.[moe]([m5C])p.d([m5C])[sp].d([m5C])[sp].d(T)[sp].d(A)[sp].d(G)[sp].d([m5C])[sp].d(G)[sp].d([m5C])[sp].d(G)[sp].d([m5C])[sp].[moe](G)p.[moe](A)p.[moe]([m5C])p.[moe](T)[sp].[moe]([m5C])}$$$$ (last 3' nucleoside missing)” to “RNA1{[moe](G)[sp].[moe](T)p.[moe](T)p.[moe](A)[sp].d(A)[sp].d(T)[sp].d([m5C])[sp].d(T)[sp].d(T)[sp].d(T)[sp].d(A)[sp].d(T)[sp].[moe]([m5C])p.[moe](A)p.[moe](G)p.[moe](G)[sp].[moe](T)}$$$$ (last 3' nucleoside missing)”, the 3 h FOB score falls from 1.5 score 0-7 to 1 score 0-7.

Going from “RNA1{[moe](G)[sp].[moe](T)p.[moe](T)p.[moe](A)p.[moe](A)p.[moe](T)[sp].d([m5C])[sp].d(T)[sp].d(T)[sp].d(T)[sp].d(A)[sp].d(T)[sp].d([m5C])[sp].d(A)[sp].[moe](G)p.[moe](G)[sp].[moe](T)}$$$$ (last 3' nucleoside missing)” to “RNA1{[moe](G)[sp].[moe]([m5C])[sp].[moe]([m5C])[sp].[moe](T)[sp].[moe](T)[sp].d(A)[sp].d([m5C])[sp].d(T)[sp].d([m5C])[sp].d(T)[sp].d(A)[sp].d(G)[sp].d(G)[sp].d(A)[sp].d([m5C])[sp].[moe]([m5C])[sp].[moe](A)[sp].[moe](A)[sp].[moe](G)}$$$$ (last 3' nucleoside missing)”, the 3 h FOB score rises from 3 score 0-7 to 7 score 0-7.

First: RNA1{[moe](G)[sp].[moe]([m5C])p.[moe](T)p.[moe](G)[sp].d([m5C])[sp].d(G)[sp].d(G)[sp].d(T)[sp].d(T)[sp].d(G)[sp].d(T)[sp].d(T)[sp].[moe](T)p.[moe]([m5C])p.[moe]([m5C])p.[moe]([m5C])[sp].[moe](T)}$$$$ (last 3' nucleoside missing)
Second: RNA1{[moe](G)[sp].[moe]([m5C])p.[moe](T)p.[moe](G)p.[moe]([m5C])p.[moe](G)[sp].d(G)[sp].d(T)[sp].d(T)[sp].d(G)[sp].d(T)[sp].d(T)[sp].d(T)[sp].d([m5C])[sp].[moe]([m5C])p.[moe]([m5C])[sp].[moe](T)}$$$$ (last 3' nucleoside missing)
The 3 h FOB score of the first is lower: 5 score 0-7 for the first, 5.5 score 0-7 for the second.

Going from “RNA1{[moe](G)[sp].[moe]([m5C])p.[moe]([m5C])[sp].d(T)[sp].d(T)[sp].d(A)[sp].d([m5C])[sp].d(T)[sp].d([m5C])[sp].d(T)[sp].d(A)[sp].[moe](G)p.[moe](G)p.[moe](A)p.[moe]([m5C])p.[moe]([m5C])[sp].[moe](A)}$$$$ (last 3' nucleoside missing)” to “RNA1{[moe](G)[sp].[moe]([m5C])p.[moe]([m5C])p.[moe](T)[sp].d(T)[sp].d(A)[sp].d([m5C])[sp].d(T)[sp].d([m5C])[sp].d(T)[sp].d(A)[sp].d(G)[sp].[moe](G)p.[moe](A)p.[moe]([m5C])p.[moe]([m5C])[sp].[moe](A)}$$$$ (last 3' nucleoside missing)”, the 3 h FOB score falls from 1.25 score 0-7 to 0.25 score 0-7.

Going from “RNA1{[moe](G)[sp].[moe]([m5C])p.[moe]([m5C])p.[moe](T)p.[moe](T)p.[moe](A)[sp].d([m5C])[sp].d(T)[sp].d([m5C])[sp].d(T)[sp].d(A)[sp].d(G)[sp].d(G)[sp].d(A)[sp].[moe]([m5C])p.[moe]([m5C])[sp].[moe](A)}$$$$ (last 3' nucleoside missing)” to “RNA1{[moe](G)[sp].[moe]([m5C])p.[moe]([m5C])p.[moe](T)p.[moe](T)p.[moe](A)p.[moe]([m5C])[sp].d(T)[sp].d([m5C])[sp].d(T)[sp].d(A)[sp].d(G)[sp].d(G)[sp].d(A)[sp].d([m5C])[sp].[moe]([m5C])[sp].[moe](A)}$$$$ (last 3' nucleoside missing)”, the 3 h FOB score rises from 1 score 0-7 to 2.5 score 0-7.

Compared with “RNA1{[moe](G)[sp].[moe]([m5C])p.[moe]([m5C])p.[moe](T)p.[moe](T)p.[moe](A)p.[moe]([m5C])p.d(T)[sp].d([m5C])[sp].d(T)[sp].d(A)[sp].d(G)[sp].d(G)[sp].d(A)[sp].d([m5C])[sp].d([m5C])[sp].d(A)[sp].[moe](A)[sp].[moe](G)}$$$$ (last 3' nucleoside missing)”, “RNA1{[moe](G)[sp].[moe]([m5C])p.[moe]([m5C])p.[moe](T)p.[moe](T)p.[moe](A)p.d([m5C])[sp].d(T)[sp].d([m5C])[sp].d(T)[sp].d(A)[sp].d(G)[sp].d(G)[sp].d(A)[sp].d([m5C])[sp].d([m5C])[sp].[moe](A)p.[moe](A)[sp].[moe](G)}$$$$ (last 3' nucleoside missing)” is lower in 3 h FOB score: 3.25 score 0-7 for the first, 2.25 score 0-7 for the second.

For “RNA1{[moe](G)[sp].[moe]([m5C])p.[moe]([m5C])p.[moe](T)p.d(T)[sp].d(A)[sp].d([m5C])[sp].d(T)[sp].d([m5C])[sp].d(T)[sp].d(A)[sp].d(G)[sp].d(G)[sp].d(A)[sp].[moe]([m5C])p.[moe]([m5C])p.[moe](A)p.[moe](A)[sp].[moe](G)}$$$$ (last 3' nucleoside missing)”, the 3 h FOB score was 5.75 score 0-7.
